Results: article PMC6271891, “Exploration of Piperidinols as Potential Antitubercular Agents” (Molecules, 2014)
Converted amounts (≈) assume the structure as drawn. “And” between values parts separate entries of the source, which are not always exact repeats. Equal values may be shown once. Read-outs that look alike come from different tables or passages of the source.

Experiments:
MMNAT [1] = molecular target: T1, MMNAT (Mycobacterium marinum, UniProt B2HIZ6); test: Time-dependent (irreversible) inactivation of MMNAT by the piperidinols; assay type: biochemical; settings: for kobs: 24 °C, mean ± S.D. of triplicate; for t1/2, apparent inactivation half-life: t1/2 = 0.693/kobs
Experimental: (§1) An assay for measuring the formation of CoA [23] was modified and used to determine the activity of the enzyme in the presence of potential inhibitors exactly as described previously. Irreversible inhibition, progressive with time was measured for the piperidinol inhibitors by the protocol described in [13] and the values of the apparent first order rate constant (kobs) were determined using the Kitz and Wilson model. Adduct formation was determined as previously described by mass spectroscopy analysis.
Figure S1. The time-dependent inhibition of the MMNAT by the piperidinols (A) compounds 1, 3, 4, 6 at 11.9 μM concentration (B) 5, 7 at 5.9 μM concentration and (C) 8, […]
Semi-logarithmic plots showing the time-dependent inactivation of MMNAT by (A) compounds 1, 3, 4, 6 at 11.9 μM concentration (B) 5, 7 at 5.9 μM concentration and (C) 8, 9 (11.9 μM), 10 (23.8 μM) and 11 (5.9 μM). The enzyme activity was measured using the protocol described in [1]. The results are presented as the mean ± S.D. of triplicate measurements. The error bars are within the symbols.
The residual activity is shown as a percentage of a control. The data were fitted against the incubation time using the Semilog line (X is linear, Y is Log) module of GraphPad Prism 5.0. The slope of each line is equivalent to (−kobs/2.303) at each inhibitor concentration. […]

[2] = test system: M. tuberculosis strain H37Rv; test: Mycobacterial growth inhibition, spot culture on solid medium, M. tuberculosis H37Rv; assay type: cell-based; settings: Mycobacterium tuberculosis, 336 h, read-out: MIC M. tuberculosis
M. bovis BCG = test: microbe, parasite or virus in culture; assay type: cell-based; settings: Mycobacterium tuberculosis variant bovis BCG, 336 h, read-out: MIC M. bovis BCG
MMNAT [3] = molecular target: T1, MMNAT; test: NAT inhibition assay (CoA formation), MMNAT; assay type: biochemical; settings: for inhibition at 50 µM: read-out: MMNAT % Inhibition
Experimental: (§2) The NAT enzymes from M. smegmatis, S. typhimurium, P. aeruginosa, M. marinum, M. tuberculosis, hamster NAT2 [45] and human NAT1 [46] were produced as recombinant proteins, purified as previously described and stored at −80 in 20 mM Tris-HCl pH 8 containing 1 mM dithiothreitol and 5% glycerol and thawed and used within 1–5 h.
as §1

TBNAT = molecular target: T2, TBNAT (Mycobacterium tuberculosis, UniProt P9WJI5); test: NAT inhibition assay (CoA formation), TBNAT; assay type: biochemical, M. tuberculosis; settings: for inhibition at 50 µM: read-out: TBNAT % Inhibition; for IC50: inhibitor 0–250 μM
T2 construct: made in house
Experimental: as §2, §1

[4] = test system: M. bovis BCG str. Pasteur (ATCC 35734); test: microbe, parasite or virus in culture; assay type: cell-based; settings: Mycobacterium tuberculosis variant bovis BCG, read-out: MIC against M. bovis BCG
RAW 264.7 cells = settings: up to 50 μg/mL inhibitor concentration
mycobacteria = test system: mycobacteria; design: method as in PMID 23285185; settings: cited from earlier work
[5] = 5ASA as substrate, mean ± S.D. of triplicate, read-out: MMNAT IC50 5ASA
[6] = 50 μM inhibitor, 150 μM HLZ and 120 μM Ac-CoA, mean ± S.D. of triplicate
[7] = 150 μM HLZ and 120 μM Ac-CoA, inhibitor 0–250 μM, mean ± S.D. of triplicate, read-out: MMNAT IC50 HLZ
[8] = strain H37Rv, solid medium 7H10-OADC, no growth after 2 weeks
[9] = 150 μM HLZ and 120 μM Ac-CoA, mean ± S.D. of triplicate

T2 sequence (P9WJI5 whole entry): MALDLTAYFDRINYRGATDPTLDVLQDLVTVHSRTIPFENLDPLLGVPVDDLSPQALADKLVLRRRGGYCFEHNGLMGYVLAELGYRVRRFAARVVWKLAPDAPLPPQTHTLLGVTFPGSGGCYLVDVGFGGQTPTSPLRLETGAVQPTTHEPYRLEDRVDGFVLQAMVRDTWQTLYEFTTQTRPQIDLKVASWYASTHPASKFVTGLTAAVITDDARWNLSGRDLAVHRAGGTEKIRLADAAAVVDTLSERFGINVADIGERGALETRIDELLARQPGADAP
T1 sequence (B2HIZ6 entry or part of it): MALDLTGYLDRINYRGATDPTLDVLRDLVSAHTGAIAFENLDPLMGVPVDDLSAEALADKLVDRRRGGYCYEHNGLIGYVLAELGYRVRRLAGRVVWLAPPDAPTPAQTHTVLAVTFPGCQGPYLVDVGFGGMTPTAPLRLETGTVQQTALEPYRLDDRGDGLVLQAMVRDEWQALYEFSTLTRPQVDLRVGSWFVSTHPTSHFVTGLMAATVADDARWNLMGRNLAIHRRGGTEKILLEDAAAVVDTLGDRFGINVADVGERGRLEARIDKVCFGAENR

Row | SMILES | kobs (MMNAT [1]; inhibitor 5.9 μM) | t1/2, apparent inactivation half-life (MMNAT [1]; inhibitor 5.9 μM) [min] | MIC ([2]; H37RV) [µg/mL] | MIC (M. bovis BCG) [µg/mL] | IC50 (MMNAT [3]; [5]) [nM] | kobs (MMNAT [1]; inhibitor 23.8 μM) | t1/2, apparent inactivation half-life (MMNAT [1]; inhibitor 23.8 μM) [min] | inhibition at 50 µM (MMNAT [3]; [6]) [%] | IC50 (MMNAT [3]; [7]) [nM] | inhibition at 50 µM (TBNAT; [6]) [%] | inhibition at 50 µM (MMNAT [3]) [%] | inhibition at 50 µM (TBNAT) [%] | kobs (MMNAT [1]; inhibitor 11.9 μM) | t1/2, apparent inactivation half-life (MMNAT [1]; inhibitor 11.9 μM) [min] | MIC [2, 8] [µg/mL] | IC50 (TBNAT; [9]) [nM] | MIC [4] | Cytotoxic effect on RAW 264.7 cells (RAW 264.7 cells) | MIC (antimycobacterial) (mycobacteria) [µg/mL]
1 | O=C(c1ccccc1)C1CN(C2CCCCC2)CCC1(O)c1ccccc1 (stereo not shown) [Compound 7] | 573 ± 25 10^−3 min^−1 | 1.2 | 1 to 5 (≈ 2.75 to 13.8 µM) | 6.3 to 12.5 (≈ 17.3 to 34.4 µM) | 1700 ± 200 |  |  |  |  |  |  |  |  |  |  |  |  |  | 
2 | O=C(c1ccccc1)C1CN(C2CCS(=O)(=O)C2)CCC1(O)c1ccccc1 (stereo not shown) [Compound 10] |  |  |  | 3.1 to 6.3 (≈ 7.76 to 15.8 µM) | > 30000 | 19 ± 1 10^−3 min^−1 | 37.1 | 99 ± 0.7 | 13000 ± 1000 | 47 ± 2 |  |  |  |  |  |  |  |  | 
3 | C=CCC(O)(CCN1CCOCC1)c1ccc(F)cc1 (stereo not shown) [Compound 16] |  |  |  |  |  |  |  |  | 6400 ± 600 |  | 99 ± 1 | -14 ± 3 |  |  |  |  |  |  | 
4 | O=C(c1ccccc1)C1CN(C2CCCO2)CCC1(O)c1ccccc1 (stereo not shown) [Compound 9] |  |  |  |  | 9000 ± 900 |  |  | 100.8 ± 0.5 | 2500 ± 300 | 51 ± 3 |  |  | 163 ± 39 10^−3 min^−1 | 4.2 | 0 to 1 |  |  |  | 
5 | CN1CCC(O)(c2ccc(Br)cc2)C(C(=O)c2ccc(Br)cc2)C1 (stereo not shown) [Compound 3] |  |  |  | 6.3 to 12.5 (≈ 13.9 to 27.6 µM) | 1300 ± 400 |  |  | 99 ± 1 | 80 ± 10 | 98 ± 3 |  |  | 74 ± 7 10^−3 min^−1 | 9.4 | 5 to 10 (≈ 11 to 22.1 µM) | 2900 ± 400 |  |  | 
6 | CN1CCC(O)(c2ccc(Cl)cc2)C(C(=O)c2ccc(Cl)cc2)C1 (stereo not shown) [Compound 2] |  |  |  | 6.3 to 12.5 (≈ 17.3 to 34.3 µM) | 1400 ± 600 |  |  | 103 ± 2 | 160 ± 10 | 98 ± 1 |  |  | 110 ± 2 10^−3 min^−1 | 6.3 |  | 1600 ± 100 |  |  | 
7 | O=C(c1ccccc1)C1CN(Cc2ccccc2)CCC1(O)c1ccccc1 (stereo not shown) [Compound 8] |  |  |  | 6.3 to 12.5 (≈ 17 to 33.6 µM) |  |  |  | 101 ± 1 | 4100 ± 400 | 58 ± 2 |  |  | 10 ± 1 10^−3 min^−1 | 71.4 | 0 to 1 |  |  |  | 
8 | OC(CCN1CCCCC1)c1ccc2c(c1)OCO2 (stereo not shown) [Compound 15] |  |  |  |  |  |  |  |  | 1000 ± 100 |  | 103 ± 3 | 86 ± 2 |  |  |  | 20000 ± 3000 | 125 µM to 250 µM and 33 µg/mL to 66 µg/mL |  | 
9 | CCN1CCC(O)(c2ccccc2)C(C(=O)c2ccccc2)C1 (stereo not shown) [Compound 4] |  |  |  | 6.3 to 12.5 (≈ 20.4 to 40.4 µM) | 8000 ± 1000 |  |  | 126 ± 5 | 1900 | 72 ± 4 |  |  | 15 ± 1 10^−3 min^−1 | 45.6 | 5 to 10 (≈ 16.2 to 32.3 µM) | 7300 ± 300 |  |  | 
10 | CC1(C)CC(N2CCC(O)(c3ccccc3)C(C(=O)c3ccccc3)C2)CC(C)(C)N1 (stereo not shown) [Compound 11] | 34 ± 1 10^−3 min^−1 | 20.2 |  | 6.3 to 12.5 (≈ 15 to 29.7 µM) | 1100 ± 300 |  |  |  |  |  |  |  |  |  | 1 to 5 (≈ 2.38 to 11.9 µM) |  |  | no cytotoxicity was observed | 
11 | CN1CCC(O)(c2ccccc2)C(C(=O)c2ccccc2)C1 (stereo not shown) [Compound 1] |  |  |  | 6.3 to 12.5 (≈ 21.3 to 42.3 µM) | 6000 ± 1000 |  |  |  |  |  |  |  | 9 ± 2 10^−3 min^−1 | 81.5 | 1 to 10 (≈ 3.39 to 33.9 µM) |  |  | no cytotoxicity was observed | < 5
12 | CCCCN1CCC(O)(c2ccccc2)C(C(=O)c2ccccc2)C1 (stereo not shown) [Compound 6] |  |  |  | 6.3 to 12.5 (≈ 18.7 to 37 µM) | 5000 ± 400 |  |  | 102 ± 3 | 2600 ± 1000 | 100 ± 3 |  |  | 104 ± 8 10^−3 min^−1 | 6.6 | 1 to 5 (≈ 2.96 to 14.8 µM) | 6900 ± 400 |  |  | 
13 | CCN1CCC(O)(c2ccc(F)cc2)C(C(=O)c2ccc(F)cc2)C1 (stereo not shown) [Compound 5] | 638 ± 120 10^−3 min^−1 | 1.1 |  | 6.3 to 12.5 (≈ 18.2 to 36.2 µM) | 1300 ± 500 |  |  | 102 ± 3 | 500 | 108 ± 1 |  |  |  |  | 5 to 10 (≈ 14.5 to 29 µM) | 4400 |  |  | 
